Source: patent US20100055032A1, “METHODS FOR […] IMAGING USING NANOP[…] AGENTS” (NanoScan Imaging LLC, priority 2001, published 2010)

Experiment: Particle size of the nanoparticle
Format: physicochemical
Conditions: iodinated nanoparticle, 15% (w/v)

For `CCOC(=O)CCCCCOC(=O)c1c(I)c(NC(C)=O)c(I)c(NC(C)=O)c1I` [PH-50, 6-ethoxy-6-oxohexy-3,5-bis(acetylamino)-2,4,6-triiodobenzoate], the mean diameter was 282 nm.
